Data as given in patent publication US10668094B2, “Selective inhibitors of Alpha2-containing isoforms of Na,K-ATPase and use thereof for reduction of intraocular pressure” (Yeda Research and Development Co. Ltd., priority 2015, dated 2020).

Tests used:
Format in all cases: biochemical
[1] = molecular target: human Na,K-ATPase α2β2FXYD1 (Homo sapiens (Human), UniProt P50993); conditions: for Ki: read-out: Ki in nM ± SEM α2β2
[2] = molecular target: human Na,K-ATPase α1β1FXYD1 (Homo sapiens (Human), UniProt P05023); conditions: read-out: Ki in nM ± SEM α1β1
[3] = test system: human Na,K-ATPase α2β1FXYD1
[4] = molecular target: human Na,K-ATPase α2β1FXYD1 (Homo sapiens, UniProt P50993); conditions: read-out: Ki in nM ± SEM α2β1
[5] = molecular target: human Na,K-ATPase α2β3FXYD1 (Homo sapiens (Human), UniProt P50993+P54709); assay: biochemical; conditions: for Ki: read-out: Ki in nM ± SEM α2β3

Row | Structure (SMILES) | Selectivity Ki ratio α1β1/α2β2 [1] | Ki [1] [nM] | Ki [2] [nM] | Selectivity Ki ratio α1β1/α2β1 [3] | Ki [4] [nM] | Selectivity Ki ratio α1β1/α2β3 [5] | selectivity for α2β3 over α1β1 (Ki α1β1:α2β3 ratio) [5] | Ki [5] [nM]
1 | CC1CN(CC2CC(C)(C)C2)CCC(O[C@@H]2[C@H](C)O[C@@H](O[C@@H]3[C@H](C)O[C@@H](O[C@H]4CC[C@@]5(C)C(CCC6C5C[C@H](O)[C@]5(C)[C@@H](C7=CC(=O)OC7)CC[C@]65O)C4)C[C@@H]3O)C[C@@H]2O)O1 (stereo partly drawn) [DMDMcB, 4-((3S,5R,8R,9S10S,12R,13S,14S,17R)-3-(((2S,4S,5R,6R)-5-(((2S,4S,5S,6R)-5-((4-((3,3-dimethylcyclobutyl)methyl)-2-methyl-1,4-oxazepan-7-yl)oxy)-4-hydroxy-6-methyltetrahydro-2H-pyran-2-yl)oxy)-4-hydroxy-6-methyltetrahydro-2H-pyran-2-yl)oxy)-12,14-dihydroxy-10,13-dimethylhexadecahydro-1H-cyclopenta[a]phenanthren-17-yl)furan-2(5H)-one] | 6.16 | 5.1 ± 0.5 | 31.6 ± 0.5 | 3.69 | 8.6 ± 1.4 | 8.19 | 10-12 fold | 3.9 ± 0.7
2 | CCCN1CCC(O[C@@H]2[C@H](C)O[C@@H](O[C@@H]3[C@H](C)O[C@@H](O[C@H]4CC[C@@]5(C)C(CCC6C5C[C@H](O)[C@]5(C)[C@@H](C7=CC(=O)OC7)CC[C@]65O)C4)C[C@@H]3O)C[C@@H]2O)OC(C)C1 (stereo partly shown) [DP] | 8.3 | 10.5 ± 1.8 | 87.7 ± 7.9 | 4.8 | 18.3 ± 1.68 | 8.8 |  | 9.8 ± 1.1
3 | CC1CN(C[Si](C)(C)C)CCC(OC2C(O)CC(OC3C(O)CC(OC4CCC5(C)C(CCC6C5CC(O)C5(C)C(C7=CC(=O)OC7)CCC65O)C4)OC3C)OC2C)O1 (stereo not shown) [DTMS] | 5.1 | 14.3 ± 1.3 | 72.6 ± 17.6 | 3 | 24.3 ± 4 | 6.5 |  | 11.1 ± 1.6
4 | CC1CN(C2CC2)CCC(O[C@@H]2[C@H](C)O[C@@H](O[C@@H]3[C@H](C)O[C@@H](O[C@H]4CC[C@@]5(C)C(CCC6C5C[C@H](O)[C@]5(C)[C@@H](C7=CC(=O)OC7)CC[C@]65O)C4)C[C@@H]3O)C[C@@H]2O)O1 (stereo partly drawn) [DcP, 4-((3S,5R,8R,9S,10S,12R,13S,14S,17R)-3-(((2R,4S,5S,6R)-5-(((2S,4S,5S,6R)-5((4-cyclopropyl-2-methyl-1,4-oxazepan-7-yl)oxy)-4-hydroxy-6-methyltetrahydro-2H-pyran-2-yl)oxy)-4-hydroxy-6-methyltetrahydro-2H-pyran-2-yl)oxy)-12,14-dihydroxy-10,13-dimethythylhexadecahydro-1H-cyclopenta[a]phenanthren-17-yl)furan-2(5H)-one] | 8.5 | 13 ± 1.3 | 109 ± 6.2 | 7.5 | 14.6 ± 11.6 | 13.4 |  | 8.1 ± 1.36
5 | CC1CN(C(C)C)CCC(O[C@@H]2[C@H](C)O[C@@H](O[C@@H]3[C@H](C)O[C@@H](O[C@H]4CC[C@@]5(C)C(CCC6C5C[C@H](O)[C@]5(C)[C@@H](C7=CC(=O)OC7)CC[C@]65O)C4)C[C@@H]3O)C[C@@H]2O)O1 (stereo partly shown) [DiP] | 8.9 | 16.7 ± 1.9 | 149 | 5.1 | 28.9 ± 1.7 | 14.4 |  | 10.3 ± 1.8
6 | CC1CN(C(C)(C)C)CCC(O[C@@H]2[C@H](C)O[C@@H](O[C@@H]3[C@H](C)O[C@@H](O[C@H]4CC[C@@]5(C)C(CCC6C5C[C@H](O)[C@]5(C)[C@@H](C7=CC(=O)OC7)CC[C@]65O)C4)C[C@@H]3O)C[C@@H]2O)O1 (stereo partly shown) [DtB] | 7.3 | 18.4 ± 1.1 | 135 | 6.2 | 21.6 ± 5.6 | 8.2 |  | 16.3 ± 0.28
